In US6583175B2, “Alkylxanthates and use of alkylxanthates in the integrated pest management” (Council of Scientific & Industrial Research, priority 2001, dated 2003):
Converted amounts (≈) assume the structure as drawn.

Key:
Aedes aegypti mosquito = conditions: various aquatic stages of Aedes aegypti; cited from earlier work
Spodoptera litura = assay: Antifeedant activity against late third instar of Spodoptera litura (leaf disk, oral feeding); type: in vivo
in vivo = conditions: Artemia salina (brine shrimp), other: exposure in artificial seawater in the sample vial

CC(C)COC(=S)SCCSC(=S)OCC(C)C [Ethylene bis (isobutylxanthate), Ethylene Bis (isobutylxanthate)]
larvicidal and insect growth regulatory activity (Aedes aegypti mosquito): larvicidal and insect growth regulatory activity in dose dependent mannar
A.I. (Anti-feedent Index) (Spodoptera litura; 20 μg/sq. cm.): 8.14
Percent leaf consumption 12 hr (Spodoptera litura; 20 μg/sq. cm.): 60.2%
Percent leaf consumption 24 hr (Spodoptera litura; 20 μg/sq. cm.): 80.7%
A.I. (Anti-feedent Index) (Spodoptera litura; 35 μg/sq. cm.): 20.48
Percent leaf consumption 12 hr (Spodoptera litura; 35 μg/sq. cm.): 36.1%
Percent leaf consumption 24 hr (Spodoptera litura; 35 μg/sq. cm.): 62.7%
A.I. (Anti-feedent Index) (Spodoptera litura; 50 μg/sq. cm.): 34.85
Percent leaf consumption 12 hr (Spodoptera litura; 50 μg/sq. cm.): 22.4%
Percent leaf consumption 24 hr (Spodoptera litura; 50 μg/sq. cm.): 45.9%
A.I. (Anti-feedent Index) (Spodoptera litura; 65 μg/sq. cm.): 58.07
Percent leaf consumption 12 hr (Spodoptera litura; 65 μg/sq. cm.): 9.3%
Percent leaf consumption 24 hr (Spodoptera litura; 65 μg/sq. cm.): 25.2%
Concentration required for 50% leaf protection EC50 ± S.E. (Spodoptera litura; late third instar): 42.46 ± 5.76 μg/cm^2
LC50 at 24 h (in vivo): 25.8 ± 2.9 µg/mL (≈ 78.9 µM)
